Source: patent US20170182047A9, “Post-Translational Regulation of Catalytic Activities of Cytochrome P450 46A1 and Uses Thereof” (The Board of Regents of the University of Texas System, priority 2007, published 2017)

How the values were obtained:
[1] = test system: Cholesterol 24S-Hydroxylase (CYP46A1); test: Brain sterol levels in mice after intraperitoneal voriconazole; assay type: in vivo, C57/B6 J mice
Method: The mice were sacrificed by cervical dislocation.
Lipids were extracted from the brain according to Folch with some modifications. Approximately 10 mg of brain tissue was added to 1 ml of homogenization buffer (5 mM EDTA, 50 μg/ml butylated hydroxytoluene in phosphate-buffered saline, pH 7,4) in a clean glass tube, and the tissue was disrupted using a polytron homogeniser. Three milliliters of chloroform:methanol (2:1, v:v) were added to the homogenate and the vials were mixed by vortexing. Samples were centrifuged at 10,000 g for 10 min. The organic phase was transferred to a new vial. The aqueous phase was re-extracted as described previously three more times. The pooled organic phase was dried under stream of argon gas, and chloroform:methanol (2:1, v:v) added to the dried samples to achieve suitable concentration.

[2] = test system: Cholesterol 24S-Hydroxylase (CYP46A1); test: Plasma oxysterol levels in voriconazole-treated mice
Method: Seven week old male C57/B6 J mice from Charles River were injected intraperitoneally with voriconazole (60 mg/kg or 75 mg/kg, corresponding to 0.6 and 0.75 ml, respectively, of the drug solution). The control mice were injected with the same solutions containing no voriconazole. The mice were sacrificed by cervical dislocation. Brain and liver were collected, snap frozen in liquid nitrogen and stored at −80° C.

[3] = 60 mg/kg i.p. once a day for 5 days

C[C@@H](c1ncncc1F)[C@](O)(Cn1cncn1)c1ccc(F)cc1F [voriconazole]
effect on the levels of 27-hydroxycholesterol in the brain [1, 3]: no effect | effect on the levels of cholesterol in the brain [1, 3]: no effect | level of lathosterol in the brain ([1]; 60 mg/kg i.p. once a day for 5 days, p<0.05): significantly reduced | reduction in the levels of 24S-hydroxycholesterol in the brain ([1]; 60 mg/kg i.p. once a day for 5 days, p=0.03): 37% | levels of 24S-hydroxycholesterol in the brain ([1]; different doses (60 or 75 mg/kg i.p.), six hours after the injection): appeared to reduce the levels of 24S-hydroxycholesterol | effect on levels of lathosterol in the brain ([1]; single 60 mg/kg i.p., 2 hours): no significant effect | effect on levels of total cholesterol in the brain ([1]; single 60 mg/kg i.p., 2 hours): no significant effect | reduction of levels of 24S-hydroxycholesterol in the brain ([1]; single 60 mg/kg i.p., 2 hours, not statistically significant (p>0.05)): 20% | brain levels of dehydrolanosterol ([1]; voriconazole-treated mice (controls 0.14+0.05)): 1.9+0.7 ng/mg tissue | brain levels of squalene ([1]; voriconazole-treated mice (controls 2.2+0.8), p=0.05): 1.7+0.6 ng/mg tissue | brain levels of lanosterol ([1]; voriconazole-treated mice (controls 6.1+2.0), p<0.001): 27+10 ng/mg tissue | plasma concentration of 24S-hydroxycholesterol ([2]; pool of plasma, voriconazole-treated mice (control 18.8)): 13.2 ng/mL | effect on plasma level of 27-hydroxycholesterol ([2]; voriconazole-treated mice): not significantly affected | plasma level of 27-hydroxycholesterol ([2]; voriconazole-treated mice (controls 52)): 46 ng/mL | suppression of plasma levels of 24S-hydroxycholesterol ([2]; vs control pool): about 30%
